{"source": "patent US20230391736A1", "about": "“3-TETRAZOLYLMETHYL-1,3,5-TRIAZIN-2,4-DIONE COMPOUND INHIBITING CORONAVIRUS 3CL PROTEASE ACTIVITY AND PREPARATION METHOD AND USE THEREOF” (priority 2022, published 2023)", "key": {"A549 cells": {"test_system": "A549 cells", "experiment": "In-vitro cytotoxicity by the MTT method, A549 cells", "conditions": "24 hrs", "protocol": "(§1) The in-vitro cytotoxicity of Compounds 1, 12, and 17 was evaluated by the MTT method. HepG2, HEK293 and A549 cells in logarithmic growth phase were respectively trypsinized into a cell suspension. The cell density was adjusted to 5×10^4 cells/mL. 180 μL per well of the cell suspension was inoculated into a sterile 96-well plate at 37° C., and cultured in an incubator at 5% CO2 for 24 hrs. After the cells were attached to the bottom of the plate, 20 μL of the drug solutions over the concentration gradients were respectively added into each well, and 6 replicate wells were set in parallel. Also, a blank group (group without cells and drug) and a control group (group without drug) were set. The system was incubated in an incubator at 37° C. and 5% CO2 for 24 hrs, and then 20 μL per well of a 5 g/L MTT solution was added and incubated for another 4 hrs. After the incubation was completed, the culture medium in the well was gently aspirated, and 100 μL of DMSO was added to each well. Then the crystal was fully dissolved in a shaker for 10 min at a low speed. After that, the absorbency of each well was measured at OD490 nm in an enzymelinked immunodetector, and the survival rate of cells was calculated."}, "HEK293 cells": {"test_system": "HEK293 cells", "experiment": "In-vitro cytotoxicity by the MTT method, HEK293 cells", "conditions": "24 hrs", "protocol": "as §1"}, "SARS-CoV-2 3CL^pro": {"biological_target": "SARS-CoV-2 3CL^pro (Severe acute respiratory syndrome coronavirus 2 (2019-nCoV) (SARS-CoV-2), UniProt P0DTD1)", "experiment": "biochemical", "conditions": "for IC50: FRET"}, "HepG2 cells": {"test_system": "HepG2 cells", "experiment": "In-vitro cytotoxicity by the MTT method, HepG2 cells", "conditions": "24 hrs", "protocol": "as §1"}}, "note": "Read-outs that look alike come from different tables or passages of the source."}
{"smiles": "CCn1nnnc1Cn1c(=O)[nH]/c(=N\\c2cc3cn(C)nc3cc2Cl)n(Cc2cc(F)c(F)cc2F)c1=O", "note": "[Compound 17]", "values": [{"measurement": "Survival rate of A549 cells", "setting": "A549 cells; 1.5625 nM", "value": 98.02, "unit": "%"}, {"measurement": "Survival rate of A549 cells", "setting": "A549 cells; 3.125 nM", "value": 97.96, "unit": "%"}, {"measurement": "Survival rate of A549 cells", "setting": "A549 cells; 6.25 nM", "value": 97.24, "unit": "%"}, {"measurement": "Survival rate of A549 cells", "setting": "A549 cells; 12.5 nM", "value": 96.38, "unit": "%"}, {"measurement": "Survival rate of A549 cells", "setting": "A549 cells; 25 nM", "value": 95.77, "unit": "%"}, {"measurement": "Survival rate of A549 cells", "setting": "A549 cells; 50 nM", "value": 94.13, "unit": "%"}, {"measurement": "Survival rate of A549 cells", "setting": "A549 cells; 100 nM", "value": 94.21, "unit": "%"}, {"measurement": "Survival rate of A549 cells", "setting": "A549 cells; 200 nM", "value": 93.31, "unit": "%"}, {"measurement": "Survival rate of A549 cells", "setting": "A549 cells; 400 nM", "value": 91.33, "unit": "%"}, {"measurement": "Survival rate of HEK293 cells", "setting": "HEK293 cells; 1.5625 nM", "value": 93.79, "unit": "%"}, {"measurement": "Survival rate of HEK293 cells", "setting": "HEK293 cells; 3.125 nM", "value": 93.12, "unit": "%"}, {"measurement": "Survival rate of HEK293 cells", "setting": "HEK293 cells; 6.25 nM", "value": 93.48, "unit": "%"}, {"measurement": "Survival rate of HEK293 cells", "setting": "HEK293 cells; 12.5 nM", "value": 90.79, "unit": "%"}, {"measurement": "Survival rate of HEK293 cells", "setting": "HEK293 cells; 25 nM", "value": 85.73, "unit": "%"}, {"measurement": "Survival rate of HEK293 cells", "setting": "HEK293 cells; 50 nM", "value": 84.32, "unit": "%"}, {"measurement": "Survival rate of HEK293 cells", "setting": "HEK293 cells; 100 nM", "value": 83.83, "unit": "%"}, {"measurement": "Survival rate of HEK293 cells", "setting": "HEK293 cells; 200 nM", "value": 79.45, "unit": "%"}, {"measurement": "Survival rate of HEK293 cells", "setting": "HEK293 cells; 400 nM", "value": 78.03, "unit": "%"}, {"measurement": "IC50", "setting": "SARS-CoV-2 3CL^pro; class symbols, read-out: IC50 (nM), inhibitory activity against 3CL^pro", "value": "< 200", "unit": "nM"}, {"measurement": "IC50", "setting": "SARS-CoV-2 3CL^pro; non-linear regression, read-out: IC50 against 3CL^pro", "value": 160, "unit": "nM"}, {"measurement": "inhibition percentage of 3CL^pro", "setting": "SARS-CoV-2 3CL^pro; concentration 0.1 nM", "value": 0.76, "unit": "%"}, {"measurement": "inhibition percentage of 3CL^pro", "setting": "SARS-CoV-2 3CL^pro; concentration 1 nM", "value": 1.93, "unit": "%"}, {"measurement": "inhibition percentage of 3CL^pro", "setting": "SARS-CoV-2 3CL^pro; concentration 5 nM", "value": 6.21, "unit": "%"}, {"measurement": "inhibition percentage of 3CL^pro", "setting": "SARS-CoV-2 3CL^pro; concentration 10 nM", "value": 7.67, "unit": "%"}, {"measurement": "inhibition percentage of 3CL^pro", "setting": "SARS-CoV-2 3CL^pro; concentration 20 nM", "value": 12.76, "unit": "%"}, {"measurement": "inhibition percentage of 3CL^pro", "setting": "SARS-CoV-2 3CL^pro; concentration 30 nM", "value": 17.92, "unit": "%"}, {"measurement": "inhibition percentage of 3CL^pro", "setting": "SARS-CoV-2 3CL^pro; concentration 50 nM", "value": 25.23, "unit": "%"}, {"measurement": "inhibition percentage of 3CL^pro", "setting": "SARS-CoV-2 3CL^pro; concentration 100 nM", "value": 44.76, "unit": "%"}, {"measurement": "inhibition percentage of 3CL^pro", "setting": "SARS-CoV-2 3CL^pro; concentration 500 nM", "value": 68.52, "unit": "%"}, {"measurement": "inhibition percentage of 3CL^pro", "setting": "SARS-CoV-2 3CL^pro; concentration 1000 nM", "value": 85.36, "unit": "%"}, {"measurement": "Survival rate of HepG2 cells", "setting": "HepG2 cells; 1.5625 nM", "value": 95.56, "unit": "%"}, {"measurement": "Survival rate of HepG2 cells", "setting": "HepG2 cells; 3.125 nM", "value": 95.79, "unit": "%"}, {"measurement": "Survival rate of HepG2 cells", "setting": "HepG2 cells; 6.25 nM", "value": 94.43, "unit": "%"}, {"measurement": "Survival rate of HepG2 cells", "setting": "HepG2 cells; 12.5 nM", "value": 91.02, "unit": "%"}, {"measurement": "Survival rate of HepG2 cells", "setting": "HepG2 cells; 25 nM", "value": 90.46, "unit": "%"}, {"measurement": "Survival rate of HepG2 cells", "setting": "HepG2 cells; 50 nM", "value": 87.13, "unit": "%"}, {"measurement": "Survival rate of HepG2 cells", "setting": "HepG2 cells; 100 nM", "value": 83.85, "unit": "%"}, {"measurement": "Survival rate of HepG2 cells", "setting": "HepG2 cells; 200 nM", "value": 80.42, "unit": "%"}, {"measurement": "Survival rate of HepG2 cells", "setting": "HepG2 cells; 400 nM", "value": 76.13, "unit": "%"}]}
